Data on 3 molecules can be found in US7563766B2, “Methods and compositions for the promotion of a hair growth utilizing actin binding peptides” (The United States of America as represented by the …, priority 2002, dated 2009).

For series [1], the system named is male and female androgenetic patients. The note with it: human, in vivo; cited from earlier work.
For another series, the system named is chick aortic arches. Kind of series: Chick aortic arch vessel sprouting assay. Set-up: key to Sprouting: − = no activity; +/− = low activity; + = active; ++ = high activity. The note with it: for effect of actin on thymosin β4-mediated sprouting: 5-50 nM. In kind it is cell-based. The procedure: Chick aortic arch assay—The aortic arch of 13-day-old chick embryos was removed and placed in RPMI 1640. After removal of surrounding connective tissue, transverse sections of the arch were made (1 mm). The resulting aortic rings were carefully attached to the bottom of a 48-well plate, one ring per well, with 20-30 μl of Matrigel (Collaborative Biomedical Products). The rings were placed so that the lumen of each ring could be seen. More Matrigel was added onto the top of the rings to seal them in place. A 100 μl volume of human endothelial—SFM basal growth medium (Invitrogen) containing 1% penicillin streptomycin was added to each well. Thymosin β4, peptide fragments, and exogenous actin (Sigma Chemical Co.) were added to wells in serum-free medium, bringing the final volume of each well to 400 μl. ECGS (200 μg/ml) was used as a positive control. The plates were incubated for 24 hr at 37° C. Rings were fixed and stained with Diff-Quik solution II. Sprouting was scored in a blind assessment by an observer using 10× magnification on an Olympus microscope. Six wells were used for each condition tested, and each assay was done three times.

The subject of a further series is hair follicles. The experiment in a line: Topical thymosin β4 or T-3 on shaved aged BALB/c mice. The note with it: 5 μg/50 μl in water. In kind it is in vivo, mouse. The procedure:
These mice are considered highly aged as they are alive beyond the normal mouse life expectancy. […] The mice were shaved and treated as described above with thymosin β4 at the time of shaving and 48 hours later. At day 7, the skin was harvested and examined histologically, as described above in Example 1.
The T-3 fragment was produced using an automated peptide synthesizer, as is well known in the art.
The synthetic T-3 peptide was applied in a water solution/mixture at a concentration/dose of 5 μg/50 μl. […] Thus, a fragment of thymosin β4 comprising these amino acids is useful in hair regeneration compositions.

Series [2] relates to human umbilical vein endothelial cells. The experiment in a line: HUVEC migration, Boyden chamber assay. In kind it is cell-based. As to the method: (§1) Cells—HUVECs were isolated and used at passages 2-5. Grant et al., J. Cell Sci. 108:3685-3694 (1995). The cells were cultured in RPMI 1640 (Invitrogen, Carlsbad, Calif.) supplemented with 20% bovine calf serum (Hyclone Laboratories, Logan, Utah), 200 μg/ml of endothelial cell growth supplement (ECGS) (Collaborative Biomedical Products, Bedford, Mass.), 0.8 U/ml heparin sodium (Fisher Scientific, Pittsburgh, Pa.), penicillin/streptomycin (Invitrogen, Carlsbad, Calif.), 10 μg/ml gentamycin (Invitrogen, Carlsbad, Calif.), and 1% fungizone (Invitrogen, Carlsbad, Calif.).
Boyden chamber assay—HUVEC migration assays were conducted in a 48-well micro-chemotaxis chamber (Neuro Probe Inc., Cabin John, Md.) as previously described in Salcedo et al., J. Immunol. 166:7571-7578 (2001). Briefly, PVP-free polycarbonate membranes with 8 μm pores were coated with 50 μg/ml of rat tail collagen (BD Biosciences, Bedford, Mass.) in RPMI 1640 that contained 25 mM HEPES (Invitrogen, Carlsbad, Calif.) at 4° C. overnight. The membranes were dried at least 1 hr prior to use. HUVECs were serum-starved for 2 hr, harvested using Versene (Invitrogen, Carlsbad, Calif.), and resuspended in binding medium that contained RPMI 1640 with 1% BSA and 25 mM HEPES. The lower wells of the chamber were loaded with 1, 10, 100, and 1000 ng/ml of thymosin β4 or peptide fragments that were diluted in binding medium. Basic fibroblast growth factor (bFGF) (200 ng/ml) was used as a positive control. Cells were added to the upper portion of the chamber at a concentration of 50,000 cells per well. The chambers were incubated at 37° C. for 4 hr. The filters were fixed and stained using Diff-Quik (VWR, Bridgeport, N.J.). The cells that successfully migrated through the pores of the membrane were manually quantitated using a CK-2 Olympus microscope at 10× magnification. Each condition was assayed in triplicate, and the assay was repeated twice.

A further series relates to HUVEC. The experiment in a line: HUVEC cell adhesion assay. The class given is cell-based, human. The procedure:
as §1
Cell adhesion—In order to determine which ions are needed for HUVEC adhesion, Laminin-1 peptide (25 ng in 50 μl) and two test concentrations of Tβ4 (100 ng and 500 ng in 50 μl) in 0.1 M carbonate buffer, pH 9.4, were bound to the bottom of U-bottom 96-well plates overnight at 4° C. Wells were then washed twice with PBS and blocked with 150 μl of 3% BSA in PBS (Sigma Chemical Co., St. Louis, Mo.) at room temperature for 30 min. […] The remaining cells were stained with 0.2% crystal violet in 20% methanol, washed in water to remove excess stain, dried overnight at 37° C., and lysed with 10% SDS for 10 min, and the plate OD was read at 600 nm. (Molecular Devices precision microplate reader). […]

“Also recorded” adds a separate entry of the source. Ends that are not written are not given here.

`Nc1cc(N2CCCCC2)nc(N)[n+]1[O-]` [minoxidil]: the side effects result in series [1] was “scalp irritation and increased facial hair”.

In the case of LKKTETQ [Peptide T-3], in the series on chick aortic arches, the “vessel sprouting, in words” value is “fully active”. Further, in the series on chick aortic arches (Table 2 score), the Sprouting entry was “++”. The “activity in the assays (endothelial cell migration and vessel sprouting)” value in the series with chick aortic arches (statement covers both migration and sprouting assays) is “generally highly active”. For the same molecule, the “hair follicle development vs water alone” value in the series on hair follicles was “increased hair follicle development”. Moreover, the “endothelial cell migration, in words” value in series [2] is reported as “fully active”.

For actin [reference compound], the “vessel sprouting, in words” value in the series with chick aortic arches was “angiogenic activity”. In the series with chick aortic arches (exogenous actin added), the “effect of actin on ECGS-mediated vessel sprouting” value was “did not inhibit” and the “effect of actin on thymosin β4-mediated sprouting” value is on record as “significantly inhibited”. In addition, in the series on chick aortic arches (exogenous actin added, listed as soluble actin), the “effect of actin on thymosin β4-mediated sprouting” value is reported as “inhibited”. The “effect of actin on laminin-1-mediated adhesion” value in the series with HUVEC (control) is on record as “no effect”. In addition, in the series on HUVEC (soluble actin added, 5-50 nM), the “effect of actin on cell adhesion to thymosin β4” value is recorded as “inhibited; also recorded: blocked adhesion”.
